Measurements taken from patent US20130123222A1, “Synergistic Anti-Cancer Activity of SR16388 with Anti-Mitotic Drugs” (SRI INTERNATIONAL, INC., priority 2011, published 2013).

How the values were obtained:
Type in all cases: cell-based
[1] = tested on: A549; assay: 11×7 synergism hit rate; settings: NSCLC A549, combination with SR16388
Excerpt: (§1) SR16388 was synthesized in house.

[2] = tested on: OVCAR5; assay: 11×7 synergism hit rate; settings: Ovarian Cancer OVCAR5, combination with SR16388
Excerpt: as §1
(§2) Within the same type of cancer cells, some cell lines have more synergistic hits than others. Melanoma and breast cancer cell lines had the highest hit rate.

[3] = tested on: A498; assay: 11×7 synergism hit rate; settings: Renal Cancer A498, combination with SR16388
Excerpt: as §1, §2

[4] = tested on: MDAMB468; assay: 11×7 synergism hit rate; settings: Breast Cancer MDAMB468, combination with SR16388
Excerpt: as §1, §2

[5] = tested on: K562; assay: 11×7 synergism hit rate; settings: Leukemia K562, combination with SR16388
Excerpt: as §1, §2

[6] = tested on: LOXIMVI; assay: 11×7 synergism hit rate; settings: Melanoma LOXIMVI, combination with SR16388
Excerpt: as §1, §2

[7] = tested on: OVCAR3; assay: 11×7 synergism hit rate; settings: Ovarian Cancer OVCAR3, combination with SR16388
Excerpt: as §1, §2

[8] = tested on: KM12; assay: 11×7 synergism hit rate; settings: Colon Cancer KM12, combination with SR16388
Excerpt: as §1, §2

[9] = tested on: HCT116; assay: 11×7 synergism hit rate; settings: Colon Cancer HCT116, combination with SR16388
Excerpt: as §1, §2

[10] = tested on: U031; assay: 11×7 synergism hit rate; settings: Renal Cancer U031, combination with SR16388
Excerpt: as §1, §2

[11] = tested on: CAKI1; assay: 11×7 synergism hit rate; settings: Renal Cancer CAKI1, combination with SR16388
Excerpt: as §1, §2

[12] = tested on: EKVX; assay: 11×7 synergism hit rate; settings: NSCLC EKVX, combination with SR16388
Excerpt: as §1, §2

[13] = tested on: SF539; assay: 11×7 synergism hit rate; settings: CNS Cancer SF539, combination with SR16388
Excerpt: as §1, §2

[14] = tested on: SKMEL2; assay: 11×7 synergism hit rate; settings: Melanoma SKMEL2, combination with SR16388
Excerpt: as §1, §2

[15] = tested on: SW620; assay: 11×7 synergism hit rate; settings: Colon Cancer SW620, combination with SR16388
Excerpt: as §1, §2

[16] = tested on: MALME; assay: 11×7 synergism hit rate; settings: Melanoma MALME, combination with SR16388
Excerpt: as §1, §2

[17] = tested on: HS578T; assay: 11×7 synergism hit rate; settings: Breast Cancer HS578T, combination with SR16388
Excerpt: as §1, §2

[18] = tested on: MOLT4; assay: 11×7 synergism hit rate; settings: Leukemia MOLT4, combination with SR16388
Excerpt: as §1, §2

[19] = tested on: SKOV3; assay: 11×7 synergism hit rate; settings: Ovarian Cancer SKOV3, combination with SR16388
Excerpt: as §1, §2

[20] = tested on: HT29; assay: 11×7 synergism hit rate; settings: Colon Cancer HT29, combination with SR16388
Excerpt: as §1, §2

[21] = tested on: SNB19; assay: 11×7 synergism hit rate; settings: CNS Cancer SNB19, combination with SR16388
Excerpt: as §1, §2

[22] = tested on: panel of 48 to 60 cell lines; assay: 5×4 combination screen with SR16388; synergism hit rate by algorithm (Z score); settings: in combination with SR16388, all 20 (5×4) dose combinations
Description: as §1
5) A “combination score” was assigned to each specific combination (Ca1b1x): C=1 if Za1b1x>3*SD and C=0 if Za1b1x≦3*SD score);
6) Hit rate of each combination was calculated by comparing the sum of the combination scores of all 20 (5×4) dose combinations with all cell lines to the total number of data points of that specific combination;
7) Hit rate were ranked from high to low to identify potential synergistic combinations.

[23] = tested on: cancer cell lines; assay: Combination cell viability assay, general observations on ratios and confirmed synergy; settings: for interaction with SR16388 (confirmed): in combination with SR16388
Description: Cells were treated with compounds alone or in combination for three days and CellTiter-Glo® Luminescent Cell Viability Assay (Promega Corp.) was used as the endpoint to measure cell viability. […] Cells were harvested on Day-1 (FIG. 1A) and re-supspended to the corresponding seeding density and seeded with Wellmate (ThermoFisher) to 384 plates (BD or GBO). […] Master plates were made with Janus (PerkinElmer), then further diluted and added to the cell plates with Matrix Platemate (Thermo) on Day 0. CellTiter-Glo® Luminescent Cell Viability Assay (Promega Corp.) was used to measure ATP as an indicator of viable cells on Day 3 using Envision (PerkinElmer) and back up reader Analyst HT (MDS) and Gen5 (BioTek). Relative Luminescent Units (RLU) were plotted against corresponding drug concentrations and fitted with standard four parameter sigmoidal curve with custom coded R program or Calcusyn (Biosoft, Cambridge, UK).

Row | Compound | % Hit rate [1] [%] | % Hit rate [2] [%] | % Hit rate [3] [%] | % Hit rate [4] [%] | % Hit rate [5] [%] | % Hit rate [6] [%] | % Hit rate [7] [%] | % Hit rate [8] [%] | % Hit rate [10] [%] | % Hit rate [11] [%] | % Hit rate [12] [%] | % Hit rate [13] [%] | % Hit rate [14] [%] | % Hit rate [15] [%] | % Hit rate [16] [%] | % Hit rate [17] [%] | % Hit rate [18] [%] | % Hit rate [19] [%] | % Hit rate [20] [%] | % Hit rate [21] [%] | further results
1 | CC[C@]1(O)C[C@@H]2CN(CCc3c([nH]c4ccccc34)[C@@](C(=O)OC)(c3cc4c(cc3OC)N(C)[C@H]3[C@@](O)(C(=O)OC)[C@H](OC(C)=O)[C@]5(CC)C=CCN6CC[C@]43[C@@H]65)C2)C1 [Vinblastine] | 0 | 0 | 4 | 3 | 3 | 1 | 4 | 1 | 3 | 12 | 1 | 8 | 3 | 8 | 0 | 8 | 8 | 8 | 8 | 12 | % Hit rate [9]: 6%
2 | CC(=O)O[C@@]12CO[C@@H]1C[C@H](O)[C@@]1(C)C(=O)[C@H](O)C3=C(C)[C@@H](OC(=O)[C@H](O)[C@@H](NC(=O)OC(C)(C)C)c4ccccc4)C[C@@](O)([C@@H](OC(=O)c4ccccc4)[C@H]21)C3(C)C [Docetaxel] | 4 | 1 | 4 | 6 | 0 | 8 | 8 | 6 | 4 | 16 | 0 | 13 | 12 | 8 | 6 | 22 | 13 | 12 | 21 | 18 | % hit/combo [22]: 0.58%; interaction with SR16388 (confirmed) [23]: synergistic anti-proliferation effect; % Hit rate [9]: 18%
3 | CC[C@]1(O)C[C@H]2CN(CCc3c([nH]c4ccccc34)[C@@](C(=O)OC)(c3cc4c(cc3OC)N(C=O)[C@H]3[C@@](O)(C(=O)OC)[C@H](OC(C)=O)[C@]5(CC)C=CCN6CC[C@]43[C@@H]65)C2)C1 [Vincristine] | 10 | 1 | 12 | 5 | 8 | 5 | 3 | 6 | 12 | 13 | 1 | 12 | 25 | 5 | 14 | 17 | 16 | 19 | 10 | 27 | % hit/combo [22]: 2.08%; interaction with SR16388 (confirmed) [23]: synergistic anti-proliferation effect; % Hit rate [9]: 6%
4 | CC(=O)O[C@H]1C(=O)[C@@]2(C)[C@H]([C@H](OC(=O)c3ccccc3)[C@]3(O)C[C@H](OC(=O)[C@H](O)[C@@H](NC(=O)c4ccccc4)c4ccccc4)C(C)=C1C3(C)C)[C@]1(OC(C)=O)CO[C@@H]1C[C@@H]2O [Paclitaxel] | – | 6 | 10 | 8 | 12 | 13 | 8 | 10 | 9 | 22 | 0 | 19 | 29 | 9 | 14 | 23 | 21 | 18 | 22 | 27 | interaction with SR16388 (confirmed) [23]: synergistic anti-proliferation effect; interaction with more paclitaxel in the mixture ([23]; more paclitaxel than SR16388:Paclitaxel 67:33): antagonist interactions
